“Also recorded” adds a separate entry of the source.

One experiment deals with T1, FGF23 (Homo sapiens, UniProt Q9GZV9, R179Q).
T1 construct: purchased R&D Systems 2604FG025/CF
T1 sequence (Q9GZV9 25-251 R179Q): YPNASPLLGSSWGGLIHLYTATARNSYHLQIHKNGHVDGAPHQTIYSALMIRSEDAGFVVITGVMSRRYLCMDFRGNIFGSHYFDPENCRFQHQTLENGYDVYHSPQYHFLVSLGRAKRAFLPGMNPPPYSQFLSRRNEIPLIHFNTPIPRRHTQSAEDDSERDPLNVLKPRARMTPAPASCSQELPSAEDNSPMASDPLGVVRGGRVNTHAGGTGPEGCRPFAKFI
The experiment can be described thus: Surface plasmon resonance, heparin immobilized on chip. It counts as binding. The note with it: SPR. The method, then: (§1) For the direct quantitative analysis of label-free molecular interactions in real time, surface plasmon resonance studies were conducted using BIAcore T200 and T200 evaluation software (28975001, Cytiva). Sensor SA (BR100398) and CMS chips (BR100399) were from Cytiva. For the preparation of heparin chips, heparin (2 mg) and amine-PEG3-Biotin (2 mg, 21347, Pierce) were dissolved in 200 μl of H2O and 10 mg of NaCNBH3 was added. The reaction mixture was heated at 70° C. for 24 hours; an additional 10 mg of NaCNBH3 was added; and the reaction was heated at 70° C. for another 24 hours. After cooling to room temperature, the mixture was desalted with the spin column (3000 MWCO). Biotinylated heparin was collected, freeze dried, and used for chip preparation. Biotinylated heparin was immobilized to streptavidin chips according to the manufacturer's protocol. In brief, 20 μl of biotinylated heparin solution (0.1 mg/ml) in HBS-P running buffer (0.01 M N-2-hydroxyethylpiperazine-N′-2-ethanesulfonic acid, 0.15 M NaCl, 0.005% surfactant P20 [pH7.4]; BR100368, Cytiva) was injected over flow cell 2 of the streptavidin chip at a flow rate of 10 μl/min. The successful immobilization of heparin was confirmed by the observation of an approximately 200-resonance unit increase in the sensor chip. The control flow cell (flow cell 1) was prepared by 1-minute injection with saturated biotin. For the preparation of FGFR4 chips, Fc-FGFR4 protein (human ectodomain) was immobilized on research grade CMS chips according to the standard amine coupling protocol. Briefly, carboxymethyl groups on the CMS chip surface were first activated using an injection pulse of […] of an equimolar mix of N-ethyl-N-(dimethylaminopropyl) carbodiimide and N-hydroxysuccinimide (final concentration 0.05 M, mixed immediately before injection). After activation, FGFR4 was diluted to […] in 100 mM sodium acetate (pH 5.5) buffer and injected over the activated biosensor surface. Excess unreacted sites on the sensor surface were deactivated with a 35 μl injection of 1 M ethanolamine. A reference flow cell was prepared using an injection pulse of […] of an equimolar mix of N-ethyl-N-(dimethylaminopropyl) carbodiimide and N-hydroxysuccinimide (final concentration 0.05 M, mixed immediately before injection) followed by a 35 μl injection of 1 M ethanolamine. For the measurement of interactions between FGF23 (human protein), FGFR4 (human ectodomain protein), klotho (human ectodomain, self-made; see above), and heparin, samples were diluted in HBS-P buffer. Different dilutions of protein were injected at a flow rate of 30 μl/min with HBS-P buffer as running buffer. At the end of the sample injection, HBS-P buffer was flowed over the sensor surface to facilitate dissociation. After a 3-minute dissociation time, the sensor surface was regenerated by injecting with 30 μl of 2 M NaCl to get a fully regenerated surface. The response was monitored as a function of time (sensorgram) at 25° C.

A further experiment deals with T2, FGFR4 (Homo sapiens, UniProt P22455).
T2 construct: Fc-FGFR4 protein (human ectodomain) was immobilized; purchased R&D Systems 685FR050
T2 sequence (P22455 22-369 limits assumed): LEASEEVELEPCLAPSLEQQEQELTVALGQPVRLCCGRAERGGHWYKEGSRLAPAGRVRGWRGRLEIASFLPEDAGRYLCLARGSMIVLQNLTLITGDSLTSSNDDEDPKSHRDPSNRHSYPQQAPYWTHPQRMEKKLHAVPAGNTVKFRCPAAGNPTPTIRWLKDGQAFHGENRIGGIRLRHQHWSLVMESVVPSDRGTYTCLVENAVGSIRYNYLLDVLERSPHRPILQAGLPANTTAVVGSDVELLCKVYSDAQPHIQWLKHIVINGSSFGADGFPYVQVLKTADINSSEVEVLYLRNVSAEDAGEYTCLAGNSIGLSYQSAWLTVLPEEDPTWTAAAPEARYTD
The experiment is described as above. The format is binding. The note with it: SPR. The method, then: as §1

Experiment [1] has as its system adult rat ventricular myocytes (ARVMs). Description: Calcium transients and cell shortening in adult rat ventricular myocytes. The format is cell-based. The method, then: As done before,^69 adult male Wistar rats (150-200 g) were killed and hearts were quickly removed and cannulated via the ascending aorta on a Langendorff system where they were retrograde perfused and digested by type II collagenase. Hearts were perfused with calcium-free Tyrode's solution supplemented with 0.2 mmol/L of ethyleneglycol-bis-((3-aminoethylether)-N,N, N′,N′-tetraacetic acid for 3 minutes. For the digestion, hearts were perfused with Tyrode's solution containing 0.1 mmol/L of CaCl2), 1 mg/ml of type II collagenase (Worthington), and 1 mg/ml of BSA for 3 to 4 minutes at room temperature. Cells were resuspended in Tyrode's solution containing 1 mmol/L of CaCl2). Tyrode's solution contains 130 mM NaCl, 5.4 mM KCl, 0.4 mM NaH2PO4, 0.5 mM MgCl2, 25 mM N-2-hydroxyethylpiperazine-N-2-ethanesulfonic acid, and 22 mM glucose. Adult rat ventricular myocytes (ARVMs) were loaded with the fluorescent Ca^2+ dye Fluo-3 AM (Thermo Fisher Scientific) for cytosolic Ca^2+ measurements. Loaded ARVMs were acutely perfused during 2 minutes with vehicle, FGF23 (10 ng/ml), or a combination of FGF23 and heparin (0.7 USP/ml). Cytosolic Ca^2+ transients were recorded under 1 Hz of field stimulation using 2 parallel platinum electrodes. Images were obtained with confocal microscopy (Zeiss LSM 510-META microscope), using a 40× objective by scanning the cell with an argon laser every 1.54 ms. Fluo-3 AM was excited at 488 nm, and emissions were collected at >505 nm. Cell contraction was stimulated as the difference in cell length between rest and contraction (during electrical stimulation), expressed as a percentage of shortening of the cell length. Image analysis was performed with self-made routines using IDL (Research Systems) and ImageJ (v1.53) software.

Consider heparin [reference compound], for which the equilibrium dissociation constant (Kd) (in general, the concentration at which binding is half-saturated) on FGF23 is 7.6 nM; on FGFR4 (read-out: dissociation constant KD), 2.8 nM. In addition, the figures for the ka on FGF23 (25° C.) and on FGFR4 (25° C.) were 4.8 × 10^5 1/MS and 1.2 × 10^6 1/MS, respectively. Besides, the kd at FGF23 (25° C.) is 3.6 × 10^−3 1/S. Besides, the “FGF23 effect on [Ca2+]i transients in the presence of heparin” value in experiment [1] (FGF23 10 ng/ml with heparin 0.7 USP/ml) is “became statistically significant; also recorded: significantly increased”. Besides, in experiment [1] (FGF23 with heparin), the “FGF23 effect on cell shortening with addition of heparin” value is reported as “significantly increased the effect of FGF23”. Moreover, the “[Ca2+]i transients, heparin by itself” value in experiment [1] (heparin 0.7 USP/ml) was “no significant effects”. For the same substance, the “cell shortening, heparin by itself” value in experiment [1] (heparin alone) is reported as “no significant effects”.

(Values after patent US20240384250A1, “FIBROBLAST GROWTH FACTOR 23 MODULATING COMPOUNDS” (THE UAB RESEARCH FOUNDATION, priority 2021, published 2024).)
